# Literature values, collected in patent US20080161413A1, “Agent for increasing adiponectin in blood” (YAMAHA HATSUDOKI KABUSHIKI KAISHA, priority 2006, published 2008).
# Test system: adiponectin
# Conditions: obese/diabetic mice
compound,measurement,value
COc1cc(C(C)=O)ccc1O [apocynin],production of adiponectin,increases
